From patent publication US20230146455A1, “TREATMENT OF INFLAMMATORY DISEASES WITH PEPTIDES AND PHARMACEUTICAL COMPOSITIONS” (Yuyu Pharma, Inc., priority 2020, published 2023)
Converted amounts (≈) assume the structure as drawn. “Also recorded” adds a separate entry of the source. Read-outs that look alike come from different tables or passages of the source. Where a SMILES comes first, the peptide text is derived from it. [ ]: non-standard residue; d: D form. The star is where a group is joined. Hyp = O=C(O)[C@@H]1C[C@@H](O)CN1; NH(CH2)2O(CH2)2NH2 = NCCOCCN*

Legend:
[1] = test system: IL-6 cytokine release in poly I:C stimulated primary human corneal epithelial cells; experiment: Soluble IL-6 cytokine release in poly I:C stimulated primary human corneal epithelial cells by ELISA (Example 2); type: cell-based; conditions: 30, 10, 1, 0.1, 0.01, 0.001 μM, 25 μg/mL poly I:C, 24 hours
Procedure: Assay protocol as shown below was used to determine the significant effect of test compounds. The data was statistically analyzed by one-way ANOVA with a Bonferroni post test comparing all the columns. The significance was represented by the p value.
Selected YDE peptides (YDE-093, -096, -100, -101, -102, -103, -104, -105, -106 and -107) were evaluated by assessing the soluble IL-6 cytokine release in poly I:C stimulated primary human corneal epithelial cells by ELISA (Biolegend, 430504).
Specifically, primary corneal epithelial cells (ATCC, ATCC PCS-700-010) were seeded on a 6-well culture plate containing the Corneal Epithelial Cell Basal Medium (ATCC, ATCC PCS-700-030) in the Corneal Epithelial Cell Growth Kit (ATCC, ATCC PCS-700-040) in an amount of 1.2×10^5 cells per well, which was then cultured for 24 hours under the conditions of 37° C. and 5% CO2. Then, cells were washed with 1×PBS and replaced with serum free medium which was then cultured for 2 hours under the conditions of 37° C. and 5% CO2.
After 2 hours, cells were treated with compounds at 6 differential concentrations (Hinokitiol/YDE peptides at 30, 10, 1, 0.1, 0.01, and 0.001 μM) with the DMSO final 0.5% and then cultured for 1 hour under the conditions of 37° C. and 5% CO2.
After 1 hour, cells were further treated with 25 μg/mL of poly I:C and cultured for 24 hours under the conditions of 37° C. and 5% CO2.
Following incubation, the supernatant was collected for IL-6 levels was assessed by Sandwich ELISA (Enzyme-linked immunosorbent assay) following manufacturer's instructions. The data was statistically analyzed by one-way ANOVA with a Bonferroni post-test comparing all the columns. The significance was represented by the p value.

NF-kB (p65) = NF-kB (p65) transcription activity in poly I:C stimulated primary human corneal epithelial cells (Example 5); type: cell-based
Excerpt: (§1) To determine the effect of YDE053 on NF-kB (p65) transcription activity in poly I:C stimulated primary human corneal epithelial cells. Study Plan • Test System: Primary Human Corneal Epithelial cells • Assay Format: 96-well plate format • Method of Detection: Enzyme-linked immunosorbent assay • Assay Controls: Hinokitiol Assay protocol as shown below was used to determine the significant effect of test compounds. The data was statistically analyzed by one-way ANOVA with a Bonferroni post test comparing all the columns. The significance was represented by the p value.

[2] = test system: IL-1beta, IL-6, IL-8, MIP-1alpha, MIP-1beta, RANTES, and TNF-alpha release in poly I:C stimulated primary human corneal epithelial cells; experiment: Panel of soluble proteins release in poly I:C stimulated primary human corneal epithelial cells by Multiplex (Example 4); type: cell-based; conditions: for IL-6, MFI Mean±SD: Stimulated 14801±407, p<0.05
Excerpt: as §1, with “compound by assessing the panel of soluble proteins release” for “YDE053 on NF-kB (p65) transcription activity”, “cells by Multiplex.” for “cells. Study Plan”, “described” for “shown”

[3] = test system: IL-6 cytokine release in poly I:C stimulated primary human corneal epithelial cells; experiment: Soluble IL-6 cytokine release in poly I:C stimulated primary human corneal epithelial cells by ELISA (Example 6); type: cell-based
Excerpt: as §1, with “compound by assessing the soluble IL-6 cytokine release” for “YDE053 on NF-kB (p65) transcription activity”, “cells by ELISA.” for “cells. Study Plan”

[4] = Apparent permeability, 21 day cultured Caco-2 cell monolayer, bi-directional (Example 7); type: in vitro ADME; conditions: human; for recovery at 120 min, 2 μM: Caco-2, 2 μM
Procedure: (§2) 10 mM stock solution of test compound was prepared in DMSO. 10 mM stock was diluted with 100% DMSO to prepare 0.2 mM, 0.2 mM stock was diluted with HBSS buffer to a final concentration of 2 μM.
(§3) Add 250 μL of DMEM to the basal compartment of 96 well multi-screen Caco-2 plates and seed 12000 cells/well (0.16×10^6 cells/ml) in all the apical wells required and 2 wells with only media as blank without cells. Place the Caco-2 plate in CO2 incubator at 37° C. for proliferation of cells.
(§4) The utilized media was replenished every alternate day by fresh medium. On 21st day, utilized medium was removed and washed twice with HBSS Buffer and incubated with HBSS buffer 30 min in incubator and initiated the assay.
(§5) 75 μL of test compound was added to apical wells and 250 μL of HBSS buffer with 1% DMSO was added to basal wells. Samples were collected at 120 min and processed as stated below.
(§6) 250 μL of test compound was added to basal wells and 75 μL of HBSS buffer with 1% DMSO was added to apical wells. Samples were collected at 120 min and processed as stated below.
(§7) Single point calibration curve in HBSS buffer was used. 100 μL of supernatant was diluted with 200 μL of water and submitted for LC-MS/MS analysis.
(§8) Efflux ratio=Papp of basal to apical samples/Papp of apical to basal samples
(§9) Recovery: {(dQ of Apical+dQ of Basal)/Standard dQ}*100

Caco-2 cells monolayer = experiment: as above; type: in vitro ADME
Procedure: as §2, §3, §4, §5, §6, §7, §8, §9

[5] = Solubility (in water; in saline); type: physicochemical
[6] = test system: CIA-induced Rheumatoid Arthritis; experiment: Mouse CIA-induced Rheumatoid Arthritis Model: body weight, hind paw thickness, clinical score (Example 13); type: in vivo; conditions: CII-injected mice
Excerpt: Clinical score: 0—no change; 1—swelling and erythema of the digit; 2—mild swelling and erythema of the limb; 3—gross swelling and erythema of the digit; 4—gross deformity and inability to use the limb.

[7] = test system: primary corneal epithelial cells; experiment: Cell proliferation of primary corneal epithelial cells (CellTiter-Glo, Example 3); type: cell-based, human
Procedure: • Test System: HCE cells from ATCC. • Assay Format: 96-well plate format • Method of Detection: CellTiter-Glo Luminescent Cell Viability Assay (Pro mega, Cat #G7573) • Assay Controls: Reference compound (hEGF) and untreated cells • Test Samples: 57 • Media: Corneal Epithelial Cell Basal Medium+Cell growth kit components EXPERIMENTAL DESIGN
Specifically, 5000 primary corneal epithelial cells/well were seeded in a white opaque 96-well plate and incubated for 24 hrs in a 37° C. incubator supplemented with 5% CO2. After 24 hours, test compounds were treated at 8 different concentrations. Cells treated with compounds were incubated for 48 & 72 hrs at 37° C. in a 5% CO2 incubator. Post appropriate incubation time points, CellTiter-Glo luminescent reagent (Promega, Cat #G7573) was added to the plates and incubated at room temperature for 30 min. Luminescence signal was captured using EnVision^2104® Multilabel reader. Assay controls were reference compound (hEGF) and untreated cells.

CC(C)c1cccc(=O)c(O)c1 [Hinokitiol]
Poly I:C induced IL-6 cytokine release (in words) [1]: significantly attenuate the Poly I:C stimulated IL-6 cytokine release in a dose dependent manner | phosphorylation of (p65) NF-kB in Poly I:C stimulated cells (in words) (NF-kB (p65)): significantly attenuate the phosphorylation of (p65) NF-kB in Poly I:C stimulated cells in a dose dependent manner | Poly I:C stimulated cytokines release (IL-1beta, IL-6, IL-8, MIP-1alpha, MIP-1beta, RANTES, and TNF-alpha) (in words) ([2]; Multiplex): significantly attenuate the Poly I:C stimulated cytokines release | IL-6, MFI Mean±SD ([2]; Stimulated + 1 μM): 7004±376 | IL-6, MFI Mean±SD ([2]; Stimulated + 10 μM): 7011±471 | IL-6, MFI Mean±SD ([2]; Stimulated + 30 μM): 6759±500 | Poly I:C induced IL-6 cytokine release (in words) [3]: significantly attenuate the Poly I:C stimulated IL-6 cytokine release in a dose dependent manner

CC(C)NCC(O)COc1cccc2ccccc12 (stereo not drawn) [Propranolol, reference compound]
recovery at 120 min, 2 μM ([4]; 120 minutes, read-out: A to B % Recovery): 80.1% | recovery at 120 min, 2 μM ([4]; 120 minutes, read-out: B to A % Recovery): 90.3% | Papp A→B at 120 min, 2 μM ([4]; Caco-2, 2 μM, 120 minutes, average values, read-out: Papp Apical to Basal): 23.8 ×10⁻⁶ cm/s | Papp B→A at 120 min, 2 μM ([4]; Caco-2, 2 μM, 120 minutes, average values, read-out: Papp Basal to Apical): 37.1 ×10⁻⁶ cm/s | efflux ratio at 120 min, 2 μM ([4]; Caco-2, Papp B-A / Papp A-B): 1.56 | Classification (Caco-2 Permeability) (Caco-2 cells monolayer): HIGH

CC(C)C[C@H](NC(=O)CNC(=O)[C@H](CC(C)C)NC(=O)[C@H](CCC(N)=O)NC(=O)CNC(=O)[C@@H]1C[C@@H](O)CN1)C(=O)N[C@@H](C)C(=O)NCC(=O)N1CCC[C@H]1C(=O)N[C@@H](CCCCN)C(=O)NCCOCCN [YDE-093] (H-[Hyp]GQLGLAGPK-{NH(CH2)2O(CH2)2NH2})
Poly I:C induced IL-6 cytokine release (in words) [1]: attenuation of IL-6 release; also recorded: attenuate Poly I:C induced of IL-6 cytokine release in a dose dependent manner | Solubility in Water [5]: 10.0 mg/mL (≈ 9.62 mM) | Poly I:C induced IL-6 cytokine release (in words) [3]: attenuate Poly I:C induced of IL-6 cytokine release in a dose dependent manner | tested concentrations with significant attenuation of IL-6 cytokine release [3]: 30 μM, 10 μM, 1 μM and 0.1 μM

CC(C)C[C@H](NC(=O)CNC(=O)[C@H](CC(C)C)NC(=O)[C@H](CCC(N)=O)NC(=O)CNC(=O)[C@@H]1C[C@@H](O)CN1)C(=O)N[C@@H](C)C(=O)NCC(=O)N1CCC[C@H]1C(=O)N[C@@H](CCCCN)C(=O)NCCOCCN [YDE-096] (H-[Hyp]GQLGLAGPK-{NH(CH2)2O(CH2)2NH2})
Poly I:C induced IL-6 cytokine release (in words) [1]: attenuation of IL-6 release; also recorded: attenuate Poly I:C induced of IL-6 cytokine release in a dose dependent manner | solubility ([5]; water): 10000 µg/mL (≈ 9.62 mM) | Poly I:C induced IL-6 cytokine release (in words) [3]: attenuate Poly I:C induced of IL-6 cytokine release in a dose dependent manner | tested concentrations with significant attenuation of IL-6 cytokine release [3]: 30 μM, 10 μM, 1 μM and 0.1 μM

C[C@@H]1C[C@H]2[C@@H]3CCC4=CC(=O)C=C[C@]4(C)[C@@]3(F)[C@@H](O)C[C@]2(C)[C@@]1(O)C(=O)CO [dexamethasone]
body weight (in words) [6]: lead to a decease in body weight in mice

Human epidermal growth factor (NSDSECPLSHDGYCLHDGVCMYIEALDKYACNCVVGYIGERCQYRDLKWWELR; UniProt P01133 971-1023, looked up) [hEGF]
cell proliferation (in words) ([7]; 48 hrs or 72 hrs, 30 to 0.01 μM): Concentration dependent proliferation of primary corneal epithelial cells | maximum proliferation ([7]; highest tested concentration of 30 μM, 48 hrs): ~40%
